Test system: 885512-296-R-J2-PDC complex spheroid viability
Test: Anticancer human tumor 885512-296-R-J2-PDC patient-derived breast carcinoma cell line growth inhibition [GQUAD]
Conditions: for IC50: curve of first compound; for viability, T/C: stronger effect = lower value
Description: DNA G-quadruplex Stabilizer Agents in Combinations in Complex Spheroids
A high-throughput screen of multi-cell type tumor spheroids was designed to identify active combinations of DNA G-quadruplex stabilizer agents and targeted small molecules. Complex spheroids include a stromal component modeled by human endothelial cells (HUVEC) and fibroblasts modeled by human mesenchymal stem cells (MSCs). The concentration ranges selected for each drug and investigational agent were based upon clinically achievable concentrations if the clinical Cmax of the agent was known.
Compounds. The drugs and investigational agents: pidnarulex (CX-5461; NSC782164), APTO-253 (NSC789042), BRACO-19 (NSC847499), peposertib (NSC802822), ceralasertib (NSC780249), elimusertib (NSC800525), camonsertib (NSC841442), AZD-1390 (NSC803789), olaparib (NSC753686), talazoparib (NSC767125), ART-558 (NSC835418), sotorasib (NSC818433), MRTX-1133 (NSC836407), SN-38 (NSC673596), topotecan (NSC609699), etoposide (NSC141540), doxorubicin (NSC123127), gemcitabine (NSC613327), 5-fluorouracil (NSC19893), paclitaxel (NSC125973), vemurafenib (NSC761431), panobinostat (NSC761190), R-306465 (JNJ-16241199; NSC773264), adavosertib (NSC754352), TP-3654 (NSC805149), carboplatin (NSC241240), KSQ-4279 (NSC840948), and staurosporine (NSC755774) were obtained from the National Cancer Institute (NCI) Developmental Therapeutics Program Chemical Repository (34). The FDA-approved anticancer drug set is available from the NCI Developmental Therapeutics Program. […] The stock solutions were prepared in dimethyl sulfoxide (DMSO, Sigma-Aldrich, St. Louis, MO, cat. D2650) at 800-fold the tested concentration and stored at -70 degrees C prior to their use. All drugs and investigational agents were tested over a range starting from a high concentration at or near the clinical Cmax and decreasing in half-log increments. If the clinical Cmax for an agent had not been determined, the highest concentration tested was 10 microM.
2.3 Cell Culture. All cells were maintained in an incubator at 37 degrees C and 5% CO2 with 95% humidity. The PDC lines were cultured according to standard operating procedures established by the NCI PDMR. All PDCs were thawed and cultured in Matrigel-coated flasks prepared with a working solution of 1X Ham's F-12 nutrient mix, without supplementation (Invitrogen, cat. 11765054), 100 U/mL penicillin-streptomycin (Invitrogen, cat. 15140122), and 2.5% Matrigel (Corning Inc., cat. 354248) for the first three passages. The 857933-349-R-J2-PDC line was cultured in 6C/Colon 1B media, which includes advanced DMEM/F-12 (Thermo Fisher Scientific, cat. 12634028), 10 mM HEPES (Thermo Fisher Scientific, cat. 15630080), 1X GlutaMAX supplement (Thermo Fisher Scientific, cat. 35050061), 0.1 mg/mL primocin (InvivoGen, cat. ant-pm-2), 10% defined fetal bovine serum, heat inactivated (HyClone Laboratories Inc., cat. SH30070.03HI), 50% L-WRN conditioned media (ATCC, cat. CRL-3276), 1.25 mM N-Acetyl-L-cysteine (Sigma-Aldrich, cat. A9165), 10 mM nicotinamide (Sigma-Aldrich, cat. N0636), 1X B-27 supplement (Thermo Fisher Scientific, cat. 17504044), 1X N-2 supplement (Thermo Fisher Scientific, cat. 17502048), 10 microM Y-27632 dihydrochloride (Tocris Bioscience, cat. 1254), and 50 ng/mL human EGF recombinant protein (Thermo Fisher Scientific, cat. PHG0311). The 485176-168-R4-J1-PDC line was cultured in Panc media, which includes all 6C/Colon 1B media components plus 100 ng/mL human FGF-10 (Thermo Fisher Scientific, cat. 100-26), 500 nM SB-431542 (Selleckchem, cat. S1067), and gastrin (Tocris, cat. 3006).
[…]

[1] = second compound 0.0316 µM, first compound 0.0316 µM
[2] = second compound 0.0316 µM, first compound 0.316 µM
[3] = second compound 0.1 µM, first compound 0.0316 µM
[4] = second compound 0.1 µM, first compound 0.316 µM
[5] = second compound 0.316 µM, first compound 0.0316 µM
[6] = second compound 0.316 µM, first compound 0.316 µM
[7] = second compound 1 µM, first compound 0.0316 µM
[8] = second compound 1 µM, first compound 0.316 µM
[9] = second compound 3.16 µM, first compound 0.0316 µM
[10] = second compound 3.16 µM, first compound 0.316 µM
[11] = second compound 10 µM, first compound 0.0316 µM
[12] = second compound 10 µM, first compound 0.316 µM
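Further: spheroids exposed to the compounds for one week.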
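Wherever viability, T/C is given: percent of tumor spheroid viability relative to DMSO vehicle control wells.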

Q: What does the source list for `CC[C@@]1(O)C(=O)OCc2c1cc1n(c2=O)Cc2cc3c(CN(C)C)c(O)ccc3nc2-1` + Cc1[nH]c2ccc(F)cc2c1-c1nc2c3cccnc3c3ncccc3c2[nH]1?
A: IC50 (second compound 0.0316 µM): 0.0263 µM; IC50 (second compound 0.1 µM): 0.0297 µM; IC50 (second compound 0.316 µM): 0.0299 µM; IC50 (second compound 1 µM): 0.0198 µM; IC50 (second compound 3.16 µM): < 0.000999 µM; IC50 (second compound 10 µM): < 0.000999 µM; viability, T/C (second compound 0.0316 µM, first compound 0.000999 µM): 105%; viability, T/C (second compound 0.0316 µM, first compound 0.00316 µM): 88.5%; viability, T/C (second compound 0.0316 µM, first compound 0.00999 µM): 89.9%; viability, T/C [1]: 41.7%; viability, T/C (second compound 0.0316 µM, first compound 0.0999 µM): 14.9%; viability, T/C [2]: 6.49%; viability, T/C (second compound 0.1 µM, first compound 0.000999 µM): 110%; viability, T/C (second compound 0.1 µM, first compound 0.00316 µM): 101%; viability, T/C (second compound 0.1 µM, first compound 0.00999 µM): 98.5%; viability, T/C [3]: 46.9%; viability, T/C (second compound 0.1 µM, first compound 0.0999 µM): 10.7%; viability, T/C [4]: 4.48%; viability, T/C (second compound 0.316 µM, first compound 0.000999 µM): 96%; viability, T/C (second compound 0.316 µM, first compound 0.00316 µM): 101%; viability, T/C (second compound 0.316 µM, first compound 0.00999 µM): 87.3%; viability, T/C [5]: 48.3%; viability, T/C (second compound 0.316 µM, first compound 0.0999 µM): 11.2%; viability, T/C [6]: 3.51%; viability, T/C (second compound 1 µM, first compound 0.000999 µM): 68.2%; viability, T/C (second compound 1 µM, first compound 0.00316 µM): 74.6%; viability, T/C (second compound 1 µM, first compound 0.00999 µM): 72%; viability, T/C [7]: 35.7%; viability, T/C (second compound 1 µM, first compound 0.0999 µM): 9.71%; viability, T/C [8]: 3.76%; viability, T/C (second compound 3.16 µM, first compound 0.000999 µM): 14.8%; viability, T/C (second compound 3.16 µM, first compound 0.00316 µM): 23.3%; viability, T/C (second compound 3.16 µM, first compound 0.00999 µM): 14%; viability, T/C [9]: 6.97%; viability, T/C (second compound 3.16 µM, first compound 0.0999 µM): 2.52%; viability, T/C [10]: 2.01%; viability, T/C (second compound 10 µM, first compound 0.000999 µM): 1.29%; viability, T/C (second compound 10 µM, first compound 0.00316 µM): 2.13%; viability, T/C (second compound 10 µM, first compound 0.00999 µM): 1.51%; viability, T/C [11]: 1.58%; viability, T/C (second compound 10 µM, first compound 0.0999 µM): 1.12%; viability, T/C [12]: 0.82%

Q: Which IC50 (second compound 0.0316 µM) does the source give for `COc1cc(C2c3cc4c(cc3C(OC3OC5COC(C)OC5C(O)C3O)C3COC(=O)C23)OCO4)cc(OC)c1O` (centres undefined) + CN(C)c1ccc(Nc2c3ccc(NC(=O)CCN4CCCC4)cc3nc3cc(NC(=O)CCN4CCCC4)ccc23)cc1 here?
A: 0.59 µM

Q: What about the IC50 (second compound 0.1 µM) of the same compound?
A: 0.641 µM

Q: What about the IC50 (second compound 0.316 µM) of the same compound?
A: 0.584 µM

Q: What about the IC50 (second compound 1 µM) of the same compound?
A: 0.574 µM

Q: What about the IC50 (second compound 3.16 µM) of the same compound?
A: 0.614 µM

Q: And the IC50 (second compound 10 µM)?
A: < 0.0316 µM

Q: What about the viability, T/C [1] of the same compound?
A: 106%

Q: And the viability, T/C (second compound 0.0316 µM, first compound 0.1 µM)?
A: 96.7%

Q: What about the viability, T/C [2] of the same compound?
A: 73%

Q: And the viability, T/C (second compound 0.0316 µM, first compound 1 µM)?
A: 30.5%

Q: What about the viability, T/C (second compound 0.0316 µM, first compound 3.16 µM) of the same compound?
A: 13.4%

Q: And the viability, T/C (second compound 0.0316 µM, first compound 10 µM)?
A: 8.11%

Q: And the viability, T/C [3]?
A: 106%

Q: And the viability, T/C (second compound 0.1 µM, first compound 0.1 µM)?
A: 94.4%

Q: What about the viability, T/C [4] of the same compound?
A: 77.1%

Q: And the viability, T/C (second compound 0.1 µM, first compound 1 µM)?
A: 33.1%

Q: And the viability, T/C (second compound 0.1 µM, first compound 3.16 µM)?
A: 13.5%

Q: What about the viability, T/C (second compound 0.1 µM, first compound 10 µM) of the same compound?
A: 9.28%

Q: And the viability, T/C [5]?
A: 100%

Q: And the viability, T/C (second compound 0.316 µM, first compound 0.1 µM)?
A: 111%

Q: What about the viability, T/C [6] of the same compound?
A: 73.3%

Q: And the viability, T/C (second compound 0.316 µM, first compound 1 µM)?
A: 28.8%

Q: And the viability, T/C (second compound 0.316 µM, first compound 3.16 µM)?
A: 13%

Q: What about the viability, T/C (second compound 0.316 µM, first compound 10 µM) of the same compound?
A: 7.51%

Q: What about the viability, T/C [7] of the same compound?
A: 88.4%

Q: What about the viability, T/C (second compound 1 µM, first compound 0.1 µM) of the same compound?
A: 97.5%

Q: And the viability, T/C [8]?
A: 72.5%

Q: And the viability, T/C (second compound 1 µM, first compound 1 µM)?
A: 28.2%

Q: What about the viability, T/C (second compound 1 µM, first compound 3.16 µM) of the same compound?
A: 13.1%

Q: And the viability, T/C (second compound 1 µM, first compound 10 µM)?
A: 7.5%

Q: What about the viability, T/C [9] of the same compound?
A: 88.5%

Q: And the viability, T/C (second compound 3.16 µM, first compound 0.1 µM)?
A: 83.8%

Q: What about the viability, T/C [10] of the same compound?
A: 78.8%

Q: And the viability, T/C (second compound 3.16 µM, first compound 1 µM)?
A: 28.8%

Q: And the viability, T/C (second compound 3.16 µM, first compound 3.16 µM)?
A: 14.4%

Q: What about the viability, T/C (second compound 3.16 µM, first compound 10 µM) of the same compound?
A: 10.3%

Q: And the viability, T/C [11]?
A: 18.7%

Q: And the viability, T/C (second compound 10 µM, first compound 0.1 µM)?
A: 24%

Q: And the viability, T/C [12]?
A: 22.1%

Q: What about the viability, T/C (second compound 10 µM, first compound 1 µM) of the same compound?
A: 11.4%

Q: What about the viability, T/C (second compound 10 µM, first compound 3.16 µM) of the same compound?
A: 10.1%

Q: And the viability, T/C (second compound 10 µM, first compound 10 µM)?
A: 8.35%

— PubChem BioAssay AID2060490 (Molecular Pharmacology Branch, DTP, NCI, 2025)
